Three molecules from patent US20230398080A1, “FLOATING DRUG DELIVERY SYSTEMS COMPRISING CANNABINOIDS” (YISSUM RESEARCH DEVELOPMENT COMP ANY OF THE HEBREW …, priority 2020, published 2023) can be followed below.

The series in a line: THC-CBD-Metoprolol intra-colon vs oral administration in the freely moving rat model. Conditions: for absorption through the colon in comparison to PO administration: lipid-based self-nano emulsifying formulation via colonic cannula vs PO, CBD 15 mg/kg, THC 20 or 10 mg/kg.

Take `C=C(C)[C@@H]1CCC(C)=C[C@H]1c1c(O)cc(CCCCC)cc1O` [CBD, cannabidiol]: the “absorption through the colon in comparison to PO administration” value was “practically not absorbed through the colon”.

For the molecule `COCCc1ccc(OCC(O)CNC(C)C)cc1` (stereo not drawn) [Metoprolol], where the note is “colonic cannula vs PO, metoprolol 20 or 15 mg/kg”, the “AUC after administration through the colon in comparison to PO administration” value was “approximately 4 fold”.

Turning to `CCCCCc1cc(O)c2c(c1)OC(C)(C)[C@@H]1CCC(C)=C[C@@H]21` [THC, tetrahydrocannabinol], the “absorption through the colon in comparison to PO administration” value is “practically not absorbed through the colon”.
